# Entries after “also recorded” stand apart in the source; their conditions may differ. Ends that are not written are not given here. FAM = 5(6)-carboxyfluorescein
# What was measured:
# human glioma cells = assay: Cellular uptake by flow cytometry (FACS); format: cell-based; conditions: 30 min incubation (Figure 4)
# Description: U87, HEK and Hela cells (5×10^4) were seeded 24 h prior to experiments into 24-well plates. Cells were incubated for 30 min in complete media after treatment with the peptide constructs. Thereafter, cells were washed four times with PBS and once with trypsin, suspended in ice-cold PBS and flow cytometry analysis was carried out with a BD LSR II flow cytometer (BD Biosciences, San Jose, CA, USA) equipped with a 488 nm argon laser and analyzed with FACSDiva software. The filter settings for excitation and emission were 480/530 nm bandpass (FL1) for FITC. Live cells were gated by forward/side scattering from a total of 10000 events.
# (§1) The cellular uptake of the chimeric peptides gHoPe2 and gHoPe3 in U87 cells, using confocal microscopy and flow cytometry is depicted in Figures 3 and 4, respectively.
# U87 cells [1] = assay: MTS cell viability (proliferation) assay; format: cell-based, human; conditions: FAM-labelled peptides, up to 20 µM, 24h
# Description: Long-term toxicity was evaluated using an MTS proliferation assay (Promega, Madison, WI, USA). The MTS assay measures the activity of mitochondrial dehydrogenases to convert tetrazolium salts into formazan. Briefly, 1×10^4 cells were seeded 24h in 96-well plates before treatment with the peptides or peptide-drug conjugates, which was conducted in complete medium for 24h. Thereafter, MTS proliferation assay was used according to the manufacturer's protocol. Untreated cells were defined as 100% viable.
# (§2) All figures are presented as mean ± SEM. The cell uptake data represent three independent experiments performed in duplicate. For toxicity measurements, a decrease in viability was considered significant at p <.001 using ANOVA Dunnett's multiple comparison test.
# subcutaneous U87 tumor = assay: Biodistribution of FAM-labelled peptides, subcutaneous tumour model; format: in vivo, mice; conditions: for localization in tumor tissue: i.v., 3 h before tissue collection, FAM fluorescence of cryosections (Figure 5)
# Description: (§3) Localization of the peptide vectors was assessed postmortem after injecting FAM-labeled peptides in homozygous female nude mice (C.Cg/AnNTac-Foxn1nu, Taconic), bearing tumor xenografts either intracranially or subcutaneously. 8×10^5 U87 cells were resuspended in 100 µl (s.c tumor model) or in 5 µl (intracranial tumor model) of fresh DMEM medium, without serum and antibiotics. The xenografting was performed by implanting the cell suspension subcutaneously or intracranially into one of the striatums (stereotaxic coordinates A=+1, L=+2, V=+3.5). At the appearance of the first signs of tumor growth (for the subcutaneous tumors: tumor size of approx 300 mm^3; for the intracranial tumors: the first sign is usually weight loss), mice were injected i.v. (via tail vein) with the peptide constructs. For the biodistribution, 100 µl of 200 µM FAM-labeled peptide suspension (in saline) was used. This represents a dose of 4 mg/kg for a mouse of 20 g. At 3h post-injection, the animals were anesthetized and intracardially perfused with 50 ml of PBS, followed by 50 ml of fixation solution (4% w/v paraformaldehyde in PBS, pH 7.4). Tissues were collected, postfixed for 2h in the same fixation solution, cryoprotected in sucrose (10% for 24h, followed by 30% for 1 week, at 4°C), snap frozen in 2-methylbutane (AppliChem) kept on dry ice. The tissues were cut on a cryostat with a thickness of 10-15 µm, counterstained with DAPI (AppliChem) and mounted using Vectashield (Vector Labs) mounting media.
# (§4) The biodistribution of FAM-labeled gHoPe2 was determined in two mouse tumour models. FAM-labeled gHo and gHoPe2 were injected 3h before tissue collection. The circulation time of 3 h was chosen from initial pilot experiments with 1 h, 3h, 6h and 24h circulation times, where the highest fluorescence in the tumor occurred at 3h.
# Firstly, a mouse model of subcutaneous U87 tumor was used. […] We detected no FAM-labeled gHo in tumor tissue and none of the peptides in the (intact) brain tissue, the kidney, and liver.
# [2] = test system: intracranial glioblastoma; assay: Biodistribution of FAM-labelled peptides, intracranial tumour model; format: in vivo, mice; conditions: i.v.; for uptake in lungs, heart, spleen, muscle and skin: animals with intracranial tumours, 3 h (Figure 8); for localization in intracranial tumour: 3 h before tissue collection, FAM fluorescence (Figures 6, 7)
# Description: as §3, §4
# Secondly, biodistribution of FAM-labeled gHo and gHoPe2, as well as FAM-labeled pVEC and gHoPe3 was assessed in a mouse model of intracranial glioblastoma. To estimate the general distribution of gHoPe2 within the glioma-containing brain, the whole coronal section was reconstructed from single microscopic images.
# U87 cells [3] = assay: LDH leakage assay (membrane integrity); format: cell-based, human; conditions: FAM-labelled peptides, up to 20 µM, 48h, compared to 0.2% of Triton
# Description: Membrane integrity was evaluated using LDH leakage assay (SIGMA-ALDRICH™ St. Louise, MO, USA), which measures lactate dehydrogenase release. Briefly, 1×10^4 cells were seeded 24h in 96-well plates before treatment with the peptides or peptide-drug conjugates, which was conducted in complete medium for 48h. Thereafter, LDH leakage was assessed according to the manufacturer's protocol. Untreated cells were defined as no leakage and 100% leakage was defined as total LDH release by lysing cells in 0.2% Triton X-100 in HKR buffer.
# as §2
# human glioma cells (U87) = assay: Cellular internalization by confocal microscopy; format: cell-based; conditions: 10 µM, 30 min incubation (Figure 3)
# Description: (§5) U87 cells (1×10^4) were seeded in Lab-Tek® 8-well chamber slides to reach 50% confluence one day prior to experimentation. After 30 min of incubation with the peptide constructs in complete medium at 37°C, cells were washed four times with PBS, followed by the addition of trypan blue (0.1 %) in OptiMEM and examined using Olympus IX81 inverted microscope equipped with FluoView 1000 confocal system using a 60x water-immersion and 100x oil-immersion objectives and excitation at 488 nm (fluorescein). For the membrane association experiments the cells were incubated with FAM-labeled peptide for 30 min at 37°C in complete medium. After the incubation period, cells were washed once with PBS and re-suspended in fresh OptiMEM medium.
# as §1
# HeLa cells = assay: Confocal microscopy, association of FAM-labelled targeting peptide with cells; format: cell-based; conditions: 20 µM, 30 minutes
# Description: (§6) The human embryonic kidney 293 cell line (HEK 293) and human glioblastoma-astrocytoma, epithelial-like cell line U87 MG (American Type Culture Collection via LGC, Sweden) and cervical cancer HeLa cells were cultured in Dulbecco's Modified Eagle Medium (DMEM) with L-glutamine. Medium was supplemented with 10% FBS, sodium pyruvate (1 mM), penicillin (100 U/ml), streptomycin (100 µg/ml) and 1% nonessential amino acids (further denoted as complete medium) (PAA Laboratories GmbH, Austria). Cell cultures were cultivated at 37°C in a humidified 5% CO2 incubator.
# as §5, with “OptiMEM medium. […]” for “OptiMEM medium.”
# U87 glioma cells = assay: as above; format: cell-based, human
# Description: as §6, §5
# (§7) To confirm binding of the targeting peptide with glioma cells, gHo peptide was labeled with fluorescent marker FAM (see the composition in Table 1) and incubated with U87 glioma cells as well as with two non-neuronal cell lines, HeLa and HEK, for 30 minutes at the room temperature, followed by mild washing of the cells.
# HEK cells = assay: as above; format: cell-based, human; conditions: 20 µM, 30 minutes
# Description: as §6, §5, §7
# subcutaneous U87 tumors = assay: Antitumour effect in vivo, tumour growth; design: species or system mice; conditions: 8.3 mg/kg (369 µM, 100 µl) i.v. twice a week; Tukey post-hoc p<.05 (Figure 13)
# Description: Localization of the peptide vectors was assessed postmortem after injecting FAM-labeled peptides in homozygous female nude mice (C.Cg/AnNTac-Foxn1nu, Taconic), bearing tumor xenografts either intracranially or subcutaneously. 8×10^5 U87 cells were resuspended in 100 µl (s.c tumor model) or in 5 µl (intracranial tumor model) of fresh DMEM medium, without serum and antibiotics. The xenografting was performed by implanting the cell suspension subcutaneously or intracranially into one of the striatums (stereotaxic coordinates A=+1, L=+2, V=+3.5). At the appearance of the first signs of tumor growth (for the subcutaneous tumors: tumor size of approx 300 mm^3; for the intracranial tumors: the first sign is usually weight loss), mice were injected i.v. (via tail vein) with the peptide constructs. For the biodistribution, 100 µl of 200 µM FAM-labeled peptide suspension (in saline) was used. This represents a dose of 4 mg/kg for a mouse of 20 g. […]
# The tumor treatments were performed using 1 mg/kg doxorubicin (369 µM, 100 µl, for an animal of 20 g) and an equivalent dose (8.3 mg/kg) of dox-gHoPe2 (369 µM, 100 µl) i.v. twice a week. The subcutaneous tumor dimensions were measured using calibre; tumor volume was calculated as (length × width^2)/2.
# The efficacy of dox-gHoPe2 was assessed in the model of subcutaneous U87 tumors. […]
substance,measurement,setting,value
LLIILRRRIRKQAHAHSK-NHQQQNPHQPPM-NH2 [FAM-gHoPe2],cellular uptake,human glioma cells,"highest; also recorded: significantly differed from the uptake values of FAM-gHoPe3 (main effect p<.01, Tukey post hoc) and FAM-gHo (p<.001)"
same,cell viability (MTS),U87 cells [1],did not affect cell viability
same,cell viability (MTS),U87 cells [1]; listed as gHoPe2,did not induce any toxic effects
same,localization in tumor tissue,subcutaneous U87 tumor,localizes in tumours; also recorded: homing
same,circulation time of the highest fluorescence in the tumor,"subcutaneous U87 tumor; initial pilot experiments with 1 h, 3h, 6h and 24h circulation times, tumour model not stated",3 h
same,"uptake in lungs, heart, spleen, muscle and skin",[2],No uptake
same,"presence in adjacent intact brain, kidney and liver",[2]; 3 h (Figure 7),not
same,localization in intracranial tumour,[2],localizes in tumours
same,localization in intracranial tumour,[2]; listed as FAM-labelled gHoPe2,global FAM localization in the tumour area
same,localization in intracranial tumour,[2]; listed as gHoPe2,can be seen in the tumor area; also recorded: specific localization
same,localization in the adjacent intact brain,"[2]; whole coronal section, 3 h (Figure 6)",not
same,LDH leakage (membrane leakage),U87 cells [3],did not affect cell viability
same,LDH leakage (membrane leakage),U87 cells [3]; listed as gHoPe2,did not induce any significant membrane leakage
same,Cellular internalization,human glioma cells (U87),exhibited cellular uptake of varying degrees
"NHQQQNPHQPPM-NH2 [FAM-gHo] ({FAM}-NHQQQNPHQPPM-NH2; also: FAM label, place not given here) [gHo N-terminally labelled with 5(6)-carboxyfluorescein]",localization in tumor tissue,subcutaneous U87 tumor,detected no
same,Cellular internalization,human glioma cells (U87),no uptake
"LLIILRRRIRKQAHAHSK-NH2 [FAM-pVEC] ({FAM}-LLIILRRRIRKQAHAHSK-NH2) [pVEC N-terminally labelled with 5(6)-carboxyfluorescein, reference compound]",cellular uptake,human glioma cells,highest
same,cell viability (MTS),U87 cells [1],did not affect cell viability
same,LDH leakage (membrane leakage),U87 cells [3],did not affect cell viability
same,Cellular internalization,human glioma cells (U87),exhibited cellular uptake of varying degrees
"LLIILRRRIRKQAHAHSK-NH2 [pVEC, 18-amino acid cell-penetrating peptide derived from murine vascular endothelial-cadherin, reference compound]",cell viability (MTS),U87 cells [1],did not induce any toxic effects
same,LDH leakage (membrane leakage),U87 cells [3],did not induce any significant membrane leakage
same,Cellular internalization,human glioma cells (U87),internalized very efficiently
"NHQQQNPHQPPM-NH2 [gHo, glioma-homing targeting peptide]",cellular uptake,human glioma cells,did not internalize
same,"uptake in lungs, heart, spleen, muscle and skin",[2],No uptake
same,localization in intracranial tumour,[2],not
same,LDH leakage (membrane leakage),U87 cells [3],did not induce any significant membrane leakage
same,binding to HeLa cells,HeLa cells,not and did not bind
same,Cellular internalization,human glioma cells (U87),did not internalize
same,Association of the targeting peptide gHo with glioma cells (U87),U87 glioma cells; 20 µM (Figure 2),associated
same,association of gHo with U87,"U87 glioma cells; FAM-labelled peptide, all tested concentrations 1-20 µM, 30 minutes, mild washing",confirmed association
same,binding to HEK cells,HEK cells,not and did not bind
NHQQQNPHQPPM-LLIILRRRIRKQAHAHSK-NH2 [FAM-gHoPe3],cell viability (MTS),U87 cells [1],did not affect cell viability
same,cell viability (MTS),U87 cells [1]; listed as gHoPe3,did not induce any toxic effects
same,LDH leakage (membrane leakage),U87 cells [3],did not affect cell viability
same,LDH leakage (membrane leakage),U87 cells [3]; listed as gHoPe3,did not induce any significant membrane leakage
same,Cellular internalization,human glioma cells (U87),"exhibited cellular uptake of varying degrees; also recorded: internalized, but to a lesser extent"
XCLLIILRRRIRKQAHAHSK-NHQQQNPHQPPM-NH2 [Dox-gHoPe2],tumor size versus untreated group,subcutaneous U87 tumors,significantly smaller

# Reference: patent EP2671597A1, “Chimeric constructs between glioma-homing peptide and cell-penetrating peptides, gHoPe2” (Cepep III AB, priority 2012, dated 2013)
